Assay results reported in US8183297B2 (Taipei Veterans General Hospital, priority 2008, dated 2012).

Experiments:
[1] = system: cancer-related stem cells; test: MTT cell viability after chemical treatment, cancer-related stem cells vs non-cancer-related stem cells; assay type: cell-based, human; conditions: MTT survival fraction; p<0.01
Experimental: Cells were seeded on 24-well plates at a density of 2×10^4 cells/well in medium, after post-chemical therapy 24 hours, then followed and analyzed by the MTT assay (Sigma-Aldrich Co.). The amount of MTT formazon product was determined by measuring the absorbance at 560 nm (SpectraMax 250, Molecular Devices, Sunnyvale, Calif., USA). The drugs for chemotherapy are consisted of visplatin, VP-16, doxorubicin, or paclitaxel.

AT/RT-CD133+ cells [2] = test: MTT assay of cell viability/proliferation in AT/RT-CD133+; assay type: cell-based, human; design: anti-cancer proliferation effect of single agent chemotherapy with addition of RV: dose or concentration left out as unconfirmed; conditions: for resistance of CD133+ to chemotherapeutic agent compared with CD133-: AT/RT cells, p<0.01
Experimental: (§1) This research followed the tenets of the Declaration of Helsinki and all samples were obtained after patients had given informed consent. Dissociated cells from the samples of brain tumors from AT/RT patients were labeled with 1 ml CD133/1 micromagnetic beads per million cells using a CD133 cell isolation kit (MACS, Miltenyi Biotec). CD133^+ cells were cultured in serum-free DMEM/F12 (GIBCO) medium supplemented with N2 supplement (R&D), 10 ng/ml human recombinant bFGF (R&D) and 10 ng/ml EGF. Gamma radiation was delivered by a Theratronic cobalt unit T-1000 (Theratronic Internation, Inc., Ottawa, Canada) at a dose rate of 1.1 Gy/min (SSD=57.5 cm). For evaluation of cell proliferation, cells were seeded on 24-well plates at a density of 2×10^4 cells/well in medium, followed by the methyl thiazol tetrazolium assay (MTT assay; Sigma-Aldrich Co.). The amount of MTT formazan product was determined using a microplate reader and an absorbance of 560 nm (SpectraMax 250, Molecular Devices, Sunnyvale, Calif., USA).

AT/RT CD133- cells = test: MTT assay of proliferation in AT/RT CD133-; assay type: cell-based, human; design: dose or concentration left out as unconfirmed; conditions: RV for 72 h
Experimental: as §1

[3] = system: AT/RT-CD133+ xenotransplant; test: Xenotransplanted tumorigenicity analysis of AT/RT cells in SCID mice; assay type: in vivo, SCID mice (BALB/c strain)
Experimental: All procedures involving animals were in accordance with the institutional animal welfare guideline of Taipei Veterans General Hospital. […] Tumor size was measured using calipers and the volume was calculated according to the formula: (length×width^2)/2 and then analyzed using Image Pro-plus software.

ATRT-CD133+ cells = test: Percentage of CD133-positive cells in ATRT-CD133+; assay type: cell-based, human; design: dose or concentration left out as unconfirmed; conditions: RV for 3 days
AT/RT-CD133+ cells [4] = test: Transwell migration/invasion and soft agar colony formation, AT/RT-CD133+; assay type: cell-based, human; design: migration/invasion: dose or concentration left out as unconfirmed; conditions: compared with IR treatment alone
Experimental: (§2) The 24-well plate Transwell® system with a polycarbonate filter membrane of 8-μm pore size (Corning, United Kingdom) was used. Cell suspensions were seeded in the upper compartment of the Transwell® chamber at a density of 1×10^5 cells in 100 μl serum-free medium. After 24 hours, the filter membrane was fixed in 4% formalin for 1 hour. The opposite surface of the filter membrane was stained with Hoechst 33342 for 3 min. The soft agar assay was performed as follows. The bottom of each well (35 mm) of a six-well culture dish was coated with 2 ml agar mixture (DMEM, 10% (v/v) FCS, 0.6% (w/v) agar). After the bottom layer solidified, 2 ml top agar-medium mixture (DMEM, 10% (v/v) FCS, 0.3% (w/v) agar) containing 2×10^4 cells was added, and dishes were incubated at 37° C. for 4 weeks. The plates were stained with 0.5 ml 0.005% Crystal Violet for 1 hour, and then the number of colonies was counted using a microscope.

AT/RT-CD133+/- cells = test: Apoptosis (annexin V, caspase 3, TUNEL) in AT/RT-CD133+/-; assay type: cell-based, human; design: apoptosis induction: dose or concentration left out as unconfirmed
Experimental: The activities of caspases-8 and -3 were determined by ELISA kit (Medical & Biological Laboratories Co., Ltd, Nagoya, Japan) and quantified by reading at 490 nm (MRX; Dynatech Laboratories, Chantilly, Va., U.S.A.). Each individual sample was analyzed in triplicate. Furthermore, apoptotic cells were identified by the terminal dUTP nick-end labeling (TUNEL) method (In situ Cell Death Detection Kit, POD, Roche Boehringer Mannheim Corp., Ind., U.S.A.). Briefly, cells with cover slips were washed with 1× phosphate-buffered saline (PBS), fixed with 4% of paraformaldehyde for 10 min, permeabilized with 0.1% of Triton X-100 for 5 min, and incubated with the TUNEL reagent provided for 1 h. Chromogenic development was then applied using 3-amino-9-ethyl-carbazole, and slides were counterstained using H&E.

[5] = system: MB-CSCs (medulloblastoma cancer stem-like cells); test: MTT assay of cell viability in MB-CSCs; assay type: cell-based, human
Experimental: Dissociated cells from the samples of medulloblastoma patients were cultured in serum-free DMEM/F12 (GIBCO) medium supplemented with N2 supplement (R&D), 10 ng/ml human recombinant bFGF (R&D) and 10 ng/ml EGF. Gamma radiation was delivered by a Theratronic cobalt unit T-1000 (Theratronic Internation, Inc., Ottawa, Canada) at a dose rate of 1.1 Gy/min (SSD=57.5 cm). For evaluation of cell proliferation, cells were seeded on 24-well plates at a density of 2×10^4 cells/well in medium, followed by the methyl thiazol tetrazolium assay (MTT assay; Sigma-Aldrich Co.).

parental MB cells = test: MTT assay of cell viability in parental MB cells; assay type: cell-based, human; conditions: 50 μM RV, serum-condition culture
Experimental: Gamma radiation was delivered by a Theratronic cobalt unit T-1000 (Theratronic Internation, Inc., Ottawa, Canada) at a dose rate of 1.1 Gy/min (SSD=57.5 cm). For evaluation of cell proliferation, cells were seeded on 24-well plates at a density of 2×10^4 cells/well in medium, followed by the methyl thiazol tetrazolium assay (MTT assay; Sigma-Aldrich Co.).

MB-CSCs = test: Migration/invasion and tumor colony formation, MB-CSCs; assay type: cell-based, human; conditions: 100 μM RV alone or combined with 2 Gy IR, compared with IR (2 Gy) alone
Experimental: as §2

iPS and ES cells = test: Osteogenic differentiation of iPS and ES cells (Alizarin red, real-time RT-PCR); assay type: cell-based
Experimental: For osteogenic induction, ES or iPS cells were cultured in DMEM-LG (Invitrogen) supplemented with 50 μg·ml^−1 ascorbate-2 phosphate, 10 nmol·L^−1 dexamethasone, and 10 mmol·L^−1 β-glycerophosphate (Sigma, St. Louis, Mo.) for 2 weeks. At the end of osteogenic induction, cells were washed twice with PBS, fixed for 10 min at room temperature with 3.7% paraformaldehyde, and stained with von Kossa stain and Alizarin red to assess osteogenic differentiation.
Real-time RT-PCR was performed as previously described. Briefly, total RNA (1 μg) of each sample was reverse-transcribed using 0.5 μg oligo dT and 200 U Superscript II RT (Invitrogen). The amplification was carried out in a total volume of 20 μl containing 0.5 μmol·L^−1 of each primer, 4 mmol·L^−1 MgCl2, 2 μl LightCycler™-FastStart DNA Master SYBR green I (Roche Molecular Systems, Alameda, Calif.) and 2 μl of 1:10 diluted cDNA. PCR reactions were prepared in duplicate and performed using the following program: 95° C. for 10 min, followed by 40 cycles of denaturation at 95° C. for 10 sec. annealing at 55° C. for 5 sec. and extension at 72° C. for 20 sec. Standard curves (cycle threshold values versus template concentration) were prepared for each target gene and for the endogenous reference gene (GAPDH) for each sample. Quantification of unknown samples was performed using LightCycler Relative Quantification Software version 3.3 (Roche).

transplanted iPS cells = test: In vivo osteogenic differentiation and teratoma formation of iPS cells transplanted to nude mice; design: species or system nude mice (BALB/c strain)

## COc1cccc2c1C(=O)c1c(O)c3c(c(O)c1C2=O)C[C@@](O)(C(=O)CO)C[C@@H]3O[C@H]1C[C@H](N)[C@H](O)[C@H](C)O1 [doxorubicin]
[1]
  resistance of cancer-related stem cell to chemotherapeutic agent compared with non-cancer-related stem cell: significantly resistant
AT/RT-CD133+ cells [2]
  resistance of CD133+ to chemotherapeutic agent compared with CD133-: significantly resistant

## Oc1ccc(/C=C/c2cc(O)cc(O)c2)cc1 [resveratrol, 3,4′,5-tri-hydroxy-trans-stilbene]
AT/RT-CD133+ cells [2]; 200 mM RV for 48 and 72 h
  total number and growth rates of CD133+: significantly decreased
AT/RT-CD133+ cells [2]; 200 mM RV, 48 h
  morphology of spheroidlike CD133+: detached from clusters and became a single suspension
AT/RT-CD133+ cells [2]; RV 100 mM
  reduction of viability of CD133+: 20-25%
AT/RT-CD133+ cells [2]; RV added to cisplatin, VP-16, ATRT-CD133+/-
  anti-cancer proliferation effect of single agent chemotherapy with addition of RV: significantly improved
AT/RT-CD133+ cells [2]; RV for 72 h
  reduction of viability of CD133+: about 40%
AT/RT-CD133+ cells [2]; RV lower than 50 mM, 24, 48, and 72 h, p>0.05
  cell viability: not significantly affected
AT/RT CD133- cells
  proliferation and growth of CD133-: totally block
[3]; 1,000 AT/RT-CD133+ treated with 200 mM RV for 72 h, within 6 weeks after inoculation
  tumor formation in transplanted SCID mice: did not form tumors
[3]; CD133+ and 150 mM RV/IR vs untreated or only IR-treated CD133+, p<0.01
  mean survival times (Kaplan-Meier): significantly prolonged
[3]; CD133+ treated by RV/IR vs CD133+ or CD133+ treated with only IR, p<0.01
  tumor volumes: significantly decreased
[3]; RV-treated CD133- group
  tumor formation: no tumor formation
ATRT-CD133+ cells
  percentage of CD133-positive cells in ATRT-CD133+: decrease
AT/RT-CD133+ cells [4]; 150 mM RV alone or combined with IR
  tumor colony formation: significantly inhibited
AT/RT-CD133+ cells [4]; RV alone or combined with IR
  migration/invasion: significantly inhibited
AT/RT-CD133+/- cells; RV plus IR 2 Gy, TUNEL
  IR (2 Gy)-mediated apoptotic activity: increase
AT/RT-CD133+/- cells; RV, 72 h, annexin V, caspase 3, TUNEL
  apoptosis induction: induce apoptosis
[5]; 100 μM RV, 48 hours
  morphology of spheroid-like MB-CSCs: detached and became a single-suspension
[5]; 100 μM RV, p<0.01
  treatment effect of IR-2 Gy on MB-CSCs with addition of RV: significantly improved
[5]; 150 μM RV for 48 h, p<0.001
  total cell number and growth rates of MB-CSCs: significantly decreased
[5]; RV 100 μM
  reduction of viability of MB-CSCs: 40-45%
[5]; RV lower than 50 μM, 48 hours, p>0.05
  cell viability of MB-CSC: not significantly affected
Parental MB cells
  cell viability of parental MB cells: moderately affected
MB-CSCs
  migration/invasion: significantly inhibited
  tumor colony formation: significantly inhibited
iPS and ES cells; 20 μmol·L^−1 resveratrol in osteogenic medium, 14 days
  calcium accumulation / mineralization (Alizarin red staining): significantly increased
iPS and ES cells; 20 μmol·L^−1 resveratrol, 7 or 14 days of induction, vs without resveratrol
  expression of Runx2, OPN and IBSP: significantly higher
Transplanted iPS cells; osteogenic medium-treated iPS cells, mice fed with resveratrol, six weeks
  expression of Oct-4, Nanog, Klf-4, and C-Myc in grafts (quantitative RT-PCR): significantly suppressed
Transplanted iPS cells; osteogenic medium-treated iPS cells, resveratrol 7.5 μg/ml in drinking water, six weeks
  teratoma-like formation in grafts: No teratoma-like formation
Transplanted iPS cells; resveratrol 7.5 μg/ml in drinking water daily, six weeks after transplantation, vs vehicle
  expression of OPN in grafts (immunofluorescence): significantly higher

## COc1cc([C@@H]2c3cc4c(cc3[C@@H](O[C@@H]3O[C@@H]5CO[C@@H](C)O[C@H]5[C@H](O)[C@H]3O)[C@H]3COC(=O)[C@H]23)OCO4)cc(OC)c1O [VP16, etoposide]
[1]
  resistance of cancer-related stem cell to chemotherapeutic agent compared with non-cancer-related stem cell: significantly resistant
AT/RT-CD133+ cells [2]
  resistance of CD133+ to chemotherapeutic agent compared with CD133-: significantly resistant

## CC(=O)O[C@H]1C(=O)[C@@]2(C)[C@H]([C@H](OC(=O)c3ccccc3)[C@]3(O)C[C@H](OC(=O)[C@H](O)[C@@H](NC(=O)c4ccccc4)c4ccccc4)C(C)=C1C3(C)C)[C@]1(OC(C)=O)CO[C@@H]1C[C@@H]2O [paclitaxel]
[1]
  resistance of cancer-related stem cell to chemotherapeutic agent compared with non-cancer-related stem cell: significantly resistant

## N.N.[Cl][Pt][Cl] [cisplatin]
[1]
  resistance of cancer-related stem cell to chemotherapeutic agent compared with non-cancer-related stem cell: significantly resistant
AT/RT-CD133+ cells [2]
  resistance of CD133+ to chemotherapeutic agent compared with CD133-: significantly resistant
